Laboratory results: patent US7247617B2, “Sixteen-member macrolide antiinfective agents” (Kosan Biosciences Incorporated, priority 2004, dated 2007)

How the values were obtained:
S. pneumoniae = assay: Biological activity against bacterial strains: S. pneumoniae; assay type: cell-based, Streptococcus pneumoniae; parameters: Biological Activity, S. pneumoniae ATCC6301 / Biological Activity, S. pneumoniae ATCC700671 / Biological Activity, S. pneumoniae ATCC700676* / Biological Activity, S. pneumoniae ATCC700677* / Biological Activity, S. pneumoniae ATCC700905* / Biological Activity, S. pneumoniae ATCC700906* / Biological Activity, S. pneumoniae ATCC49619: unit not given here; conditions: for Biological Activity, S. pneumoniae ATCC6301: strain ATCC6301; for Biological Activity, S. pneumoniae ATCC49619: strain ATCC49619; for Biological Activity, S. pneumoniae ATCC700671: strain ATCC700671; for Biological Activity, S. pneumoniae ATCC700676*: strain ATCC700676, macrolide resistant strain; for Biological Activity, S. pneumoniae ATCC700677*: strain ATCC700677, macrolide resistant strain; for Biological Activity, S. pneumoniae ATCC700905*: strain ATCC700905, macrolide resistant strain; for Biological Activity, S. pneumoniae ATCC700906*: strain ATCC700906, macrolide resistant strain
S. epidermidis = assay: Biological activity against bacterial strains: S. epidermidis; assay type: cell-based, Staphylococcus epidermidis; conditions: strain ATCC12228
E. faecalis = assay: Biological activity against bacterial strains: E. faecalis; assay type: cell-based, Enterococcus faecalis; conditions: strain ATCC51575
Haemophilus Influenzae = assay: H. influenzae Activity; assay type: cell-based; conditions: for decrease in activity compared to OMT: strains ATCC9006 and ATCC49766
S. aureus = assay: Biological activity against bacterial strains: S. aureus; assay type: cell-based, Staphylococcus aureus; parameters: unit not given here; conditions: for Biological Activity, S. aureus ATCC6538p: strain ATCC6538p; for Biological Activity, S. aureus ATCC14154*: strain ATCC14154, macrolide resistant strain; for Biological Activity, S. aureus ATCC29213: strain ATCC29213; for Biological Activity, S. aureus ATCC33591*: strain ATCC33591, macrolide resistant strain; for Biological Activity, S. aureus ATCCBAA-39*: strain ATCCBAA-39, macrolide resistant strain; for Biological Activity, S. aureus ATCCBAA-44*: strain ATCCBAA-44, macrolide resistant strain
[1] = tested on: a series of bacterial strains; assay: Biological activity against a series of bacterial strains (overall statements); assay type: cell-based
From the text: Results for S. pneumoniae, S. aureus, S. epidermidis, and E. faecalis are provided in Table B. Data on activity against H. influenzae for selected compounds are presented in Table C.

| SMILES | Biological Activity, S. pneumoniae ATCC6301 (S. pneumoniae) | Biological Activity, S. pneumoniae ATCC49619 (S. pneumoniae) | Biological Activity, S. pneumoniae ATCC700671 (S. pneumoniae) | Biological Activity, S. pneumoniae ATCC700676* (S. pneumoniae) | Biological Activity, S. pneumoniae ATCC700677* (S. pneumoniae) | Biological Activity, S. pneumoniae ATCC700905* (S. pneumoniae) | Biological Activity, S. pneumoniae ATCC700906* (S. pneumoniae) | Biological Activity, S. epidermidis ATCC12228 (S. epidermidis) | Biological Activity, E. faecalis ATCC51575 (E. faecalis) | H. influenzae Activity, strain ATCC9006 (Haemophilus Influenzae) | H. influenzae Activity, strain ATCC49766 (Haemophilus Influenzae) | decrease in activity compared to OMT (Haemophilus Influenzae) [fold] | Biological Activity, S. aureus ATCC6538p (S. aureus) | Biological Activity, S. aureus ATCC14154* (S. aureus) | Biological Activity, S. aureus ATCC29213 (S. aureus) | Biological Activity, S. aureus ATCC33591* (S. aureus) | Biological Activity, S. aureus ATCCBAA-39* (S. aureus) | Biological Activity, S. aureus ATCCBAA-44* (S. aureus) | antibiotic / antibacterial activity (in words) [1] |
| --- | --- | --- | --- | --- | --- | --- | --- | --- | --- | --- | --- | --- | --- | --- | --- | --- | --- | --- | --- |
| CCC1OC(=O)CC(O)C(C)C(OC2OC(C)C(O)C(N(C)C)C2O)C(CC=O)CC(C)C(=NOCCCCc2cnc3ccccc3c2)C=CC(C)=CC1CO (centres unmarked) [Compound J] | 0.025 | 0.049 | 0.025 | 0.025 | 0.025 | 0.025 | >12.5 | 0.20 | >12.5 | 6.25 | 6.25 | ~4 | 0.025 | 0.20 | 0.20 | >12.5 | >12.5 | >12.5 | – |
| CCC1OC(=O)CC(O)C(C)C(OC2OC(C)C(O)C(N(C)C)C2O)C(CC=O)CC(C)C(=NOCCCOc2ccc3ncccc3c2)C=CC(C)=CC1CO (centres unmarked) [Compound A] | 0.025 | 0.01 | 0.025 | 0.025 | 0.20 | 0.025 | >12.5 | 0.098 | >12.5 | 6.25 | 6.25 | ~4 | 0.025 | 0.20 | 0.098 | >12.5 | >12.5 | >12.5 | – |
| CCC1OC(=O)CC(O)C(C)C(OC2OC(C)C(O)C(N(C)C)C2O)C(CCN2CC(C)CC(C)C2)CC(C)C(=O)C=CC(C)=CC1CO (centres unmarked) [Compound 8, 20-Deoxy(3,5-dimethyl-1-piperidine)OMT, reference compound] | 0.39 | 0.78 | 0.78 | 1.56 | >12.5 | 1.56 | >12.5 | 0.78 | >12.5 | – | – | – | 0.39 | 1.56 | 1.56 | >12.5 | >12.5 | >12.5 | no antibiotic activity |
| CCC1OC(=O)CC(O)C(C)C(OC2OC(C)C(O)C(N(C)C)C2O)C(CC=O)CC(C)C(=NOCCCCOc2ccc3ncccc3c2)C=CC(C)=CC1COC(=O)NCc1ccccc1 (centres unmarked) [Compound EE] | 0.049 | 0.098 | 0.2 | 0.049 | 0.39 | 0.049 | >12.5 | 6.25 | >12.5 | 12.5 | >12.5 | – | 3.12 | 6.25 | 6.25 | >12.5 | >12.5 | >12.5 | – |
| CCC1OC(=O)CC(O)C(C)C(OC2OC(C)C(O)C(N(C)C)C2O)C(CC=O)CC(C)C(=NOCCCOc2ccc3ncccc3c2)C=CC(C)=CC1COC(=O)NCc1ccccc1 (centres unmarked) [Compound DD] | 0.049 | 0.049 | 0.049 | 0.049 | 0.2 | >12.5 | 0.049 | 0.78 | >12.5 | 12.5 | 12.5 | – | 0.78 | 1.56 | 0.78 | 12.5 | >12.5 | >12.5 | – |
